Patent publication US8999957B2, “Heterocyclic compounds as ERK inhibitors” (Merck Sharp & Dohme Corp., priority 2010, dated 2015)
“And” between values parts separate entries of the source, which are not always exact repeats. Equal entries are not always repeated. Where two headings read alike, the source gives them in different places.

Target: fully phosphorylated, mouse aERK2 enzyme (Mus musculus (Mouse), UniProt P63085)
Test: Active ERK2 (aERK) IMAP-FP assay, condition 2
Type: biochemical
Method in brief: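 Phosphorylation by fully phosphorylated mouse ERK2 ran 40-45 min, then quenched with IMAP beads (1:1000) in binding buffer; fluorescence polarization read after 30 min binding equilibration.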

[1] = active ERK2, read-out: aErk2 Ic50
[2] = aERK assay condition 2, 30 uM ATP, read-out: aERK IC50

fully phosphorylated, mouse aERK2 enzyme, sequence (P63085 whole entry): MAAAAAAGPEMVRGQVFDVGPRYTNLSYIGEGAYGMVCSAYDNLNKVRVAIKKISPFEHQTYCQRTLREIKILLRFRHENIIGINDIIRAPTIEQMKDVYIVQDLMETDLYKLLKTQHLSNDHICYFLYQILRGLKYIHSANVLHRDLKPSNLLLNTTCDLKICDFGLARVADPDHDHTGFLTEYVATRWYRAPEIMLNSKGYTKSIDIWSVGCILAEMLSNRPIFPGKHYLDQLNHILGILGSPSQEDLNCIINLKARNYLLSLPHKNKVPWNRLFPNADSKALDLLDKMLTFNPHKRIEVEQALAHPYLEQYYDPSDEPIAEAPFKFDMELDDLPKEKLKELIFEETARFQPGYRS

Row | Structure (SMILES) | IC50 [1] | IC50 [2] [nM]
1 | COc1cccc(F)c1CN1C[C@H](NC(=O)c2ccc3[nH]nc(-c4ccc5nc(C)sc5c4)c3c2)CC[C@H]1C(=O)N1CC(F)(F)C1 [N-[(3R,6S)-6-[(3,3-difluoroazetidin-1-yl)carbonyl]-1-(2-fluoro-6-methoxybenzyl)-piperidin-3-yl]-3-(2-methyl-1,3-benzothiazol-6-yl)-1H-indazole-5-carboxamide] | 47.4 nM | 
2 | COc1cccc(F)c1CN1C[C@H](NC(=O)c2ccc3[nH]nc(-c4ccnc(C)c4)c3c2)CC[C@H]1C(=O)N1CC(F)(F)C1 [N-[(3R,6S)-6-[(3,3-difluoroazetidin-1-yl)carbonyl]-1-(2-fluoro-6-methoxybenzyl)-piperidin-3-yl]-3-(2-methylpyridin-4-yl)-1H-indazole-5-carboxamide] | 14.8 nM and 10.4 nM | 
3 | Cc1cc(-c2n[nH]c3ccc(C(=O)N[C@@H]4CC[C@@H](C(=O)N5CC(F)(F)C5)N(CCc5ccccc5)C4)cc23)ccn1 [N-[(3R,6S)-6-[(3,3-difluoroazetidin-1-yl)carbonyl]-1-(2-phenylethyl)piperidin-3-yl]-3-(2-methylpyridin-4-yl)-1H-indazole-5-carboxamide] | 232 nM | 
4 | Cc1cc(-c2n[nH]c3ccc(C(=O)N[C@@H]4CC[C@@H](C(=O)N5CC(F)(F)C5)N(Cc5cccs5)C4)cc23)ccn1 [N-[(3R,6S)-6-[(3,3-difluoroazetidin-1-yl)carbonyl]-1-(thiophen-2-ylmethyl)-piperidin-3-yl]-3-(2-methylpyridin-4-yl)-1H-indazole-5-carboxamide] | 25.8 nM | 
5 | COc1cccc(F)c1CN1C[C@H](NC(=O)c2ccc3[nH]nc(-c4ccnc(C)c4)c3c2)CC[C@H]1C(=O)NOCC1CC1 [N-[(3R,6S)-6-[(cyclopropylmethoxy)carbamoyl]-1-(2-fluoro-6-methoxybenzyl)piperidin-3-yl]-3-(2-methylpyridin-4-yl)-1H-indazole-5-carboxamide] |  | 0.6
6 | COc1cccc(F)c1CN1C[C@H](NC(=O)c2ccc3[nH]nc(-c4ccnc(C)c4)c3c2)CC[C@H]1C(=O)N(C)C1CC1 [N-[(3R,6S)-6-[cyclopropyl(methyl)carbamoyl]-1-(2-fluoro-6-methoxybenzyl)piperidin-3-yl]-3-(2-methylpyridin-4-yl)-1H-indazole-5-carboxamide] |  | 2.5
7 | CCN(C)C(=O)[C@@H]1CC[C@@H](NC(=O)c2ccc3[nH]nc(-c4ccnc(C)c4)c3c2)CN1Cc1c(F)cccc1OC [N-[(3R,6S)-6-[ethyl(methyl)carbamoyl]-1-(2-fluoro-6-methoxybenzyl)piperidin-3-yl]-3-(2-methylpyridin-4-yl)-1H-indazole-5-carboxamide] | 21.8 nM | 
8 | COc1cccc(F)c1CN1C[C@H](NC(=O)c2ccc3[nH]nc(-c4ccc5nc(C)sc5c4)c3c2)CC[C@H]1C(N)=O [N-[(3R,6S)-6-carbamoyl-1-(2-fluoro-6-methoxybenzyl)piperidin-3-yl]-3-(2-methyl-1,3-benzothiazaol-6-yl)-1H-indazole-5-carboxamide] | 3.6 nM | 
9 | COc1cccc(F)c1CN1C[C@H](NC(=O)c2ccc3[nH]nc(-c4ccnc(C)c4)c3c2)CC[C@H]1C(N)=O [N-[(3R,6S)-6-carbamoyl-1-(2-fluoro-6-methoxybenzyl)piperidin-3-yl]-3-(2-methylpyridin-4-yl)-1H-indazole-5-carboxamide] | 1 nM | 
10 | COc1cccc(F)c1CN1C[C@H](NC(=O)c2ccc3[nH]nc(-c4ccncc4)c3c2)CC[C@H]1C(N)=O [N-[(3R,6S)-6-carbamoyl-1-(2-fluoro-6-methoxybenzyl)piperidin-3-yl]-3-pyridin-4-yl-1H-indazole-5-carboxamide] | 1.7 nM | 

The next lines start with the values.

Row | IC50 [1] | IC50 [2] [nM] | Structure (SMILES)
11 | 12.2 nM |  | COc1cccc(F)c1CN1C[C@H](NC(=O)c2ccc3[nH]nc(-c4ccnc(C)c4)c3c2)CC[C@H]1C(=O)NN(C)C [N-[(3R,6S)-6-[(2,2-dimethylhydrazino)-carbonyl]-1-(2-fluoro-6-methoxybenzyl)-piperidin-3-yl]-3-(2-methylpyridin-4-yl)-1H-indazole-5-carboxamide]
12 |  | 54.8 | COc1cccc(F)c1CN1C[C@H](NC(=O)c2ccc3[nH]nc(-c4ccnc(C)c4)c3c2)CC[C@H]1C(=O)Nc1ccc(C)cc1C [N-[(3R,6S)-6-[(2,4-dimethylphenyl)carbamoyl]-1-(2-fluoro-6-methoxybenzyl)piperidin-3-yl]-3-(2-methylpyridin-4-yl)-1H-indazole-5-carboxamide]
13 | 9 nM |  | COc1cccc(F)c1CN1C[C@H](NC(=O)c2ccc3[nH]nc(-c4ccnc(C)c4)c3c2)CC[C@H]1C(=O)NCCF [N-[(3R,6S)-6-[(2-fluoroethyl)carbamoyl]-1-(2-fluoro-6-methoxybenzyl)piperidin-3-yl]-3-(2-methylpyridin-4-yl)-1H-indazole-5-carboxamide]
14 | 96.5 nM |  | Cc1cc(-c2n[nH]c3ccc(C(=O)N[C@@H]4CC[C@@H](C(=O)N5CC(F)(F)C5)N(Cc5c(F)cccc5F)C4)cc23)ccn1 [N-[(3R,6S)-6-[(3,3-difluoroazetidin-1-yl)carbonyl]-1-(2,6-difluorobenzyl)piperidin-3-yl]-3-(2-methylpyridin-4-yl)-1H-indazole-5-carboxamide]
15 | 61.2 nM |  | COc1cccc(F)c1CN1C[C@H](NC(=O)c2ccc3[nH]nc(-c4ccnnc4)c3c2)CC[C@H]1C(=O)N1CC(F)(F)C1 [N-[(3R,6S)-6-[(3,3-difluoroazetidin-1-yl)carbonyl]-1-(2-fluoro-6-methoxybenzyl)-piperidin-3-yl]-3-pyridazin-4-yl-1H-indazole-5-carboxamide]
16 | 56.6 nM |  | Cc1cc(-c2n[nH]c3ccc(C(=O)N[C@@H]4CC[C@@H](C(=O)N5CC(F)(F)C5)N(Cc5ccccc5F)C4)cc23)ccn1 [N-[(3R,6S)-6-[(3,3-difluoroazetidin-1-yl)carbonyl]-1-(2-fluorobenzyl)piperidin-3-yl]-3-(2-methylpyridin-4-yl)-1H-indazole-5-carboxamide]
17 | 11.8 nM |  | COc1cccc(F)c1CN1C[C@H](NC(=O)c2ccc3[nH]nc(-c4ccnc(C)c4)c3c2)CC[C@H]1C(=O)NCCCCl [N-[(3R,6S)-6-[(3-chloropropyl)carbamoyl]-1-(2-fluoro-6-methoxybenzyl)piperidin-3-yl]-3-(2-methylpyridin-4-yl)-1H-indazole-5-carboxamide]
18 | 19.1 nM |  | COc1cccc(F)c1CN1C[C@H](NC(=O)c2ccc3[nH]nc(-c4ccnc(C)c4)c3c2)CC[C@H]1C(=O)N1CCN(C(C)=O)CC1 [N-[(3R,6S)-6-[(4-acetylpiperazin-1-yl)carbonyl]-1-(2-fluoro-6-methoxybenzyl)-piperidin-3-yl]-3-(2-methylpyridin-4-yl)-1H-indazole-5-carboxamide]
19 | 48.3 nM |  | COc1cccc(F)c1CN1C[C@H](NC(=O)c2ccc3[nH]nc(-c4ccnc(C)c4)c3c2)CC[C@H]1C(=O)N1CCC(Cl)CC1 [N-[(3R,6S)-6-[(4-chloropiperidin-1-yl)carbonyl]-1-(2-fluoro-6-methoxybenzyl)-piperidin-3-yl]-3-(2-methylpyridin-4-yl)-1H-indazole-5-carboxamide]
20 |  | 4.9 | COc1cccc(F)c1CN1C[C@H](NC(=O)c2ccc3[nH]nc(-c4ccnc(C)c4)c3c2)CC[C@H]1C(=O)NCC1CC1 [N-[(3R,6S)-6-[(cyclopropylmethyl)carbamoyl]-1-(2-fluoro-6-methoxybenzyl)piperidin-3-yl]-3-(2-methylpyridin-4-yl)-1H-indazole-5-carboxamide]
